By EC50 is commonly meant the midpoint of the concentration-response curve. Low values mean higher potency in that assay, high ones lower potency in that assay.

Each structure is given as a SMILES string. Some results are limits rather than exact numbers.

In the first assay the test system is genotype 1/2 chimeric cell culture derived HCV (HCVcc). Kind of assay: Genotype 1/2 chimeric HCVcc assay (nano-luciferase, HCV replication). The assay is classed as cell-based. The note with it: Hepatitis C virus. As for the experimental part:
Naïve Huh-7.5 target cells were plated at 2400 cells/well in 25 μL of culture media in 384-well plates (Greiner bio-one, μ clear black). After overnight incubation, compounds serially diluted in 10 μL of cell culture media were added. After 2 h compound treatment, cells were inoculated with 40 μL of genotype 1/2 chimeric cell culture derived HCV (HCVcc) which express structural proteins of an HCV genotype 1a isolate (TN accession number EF621489) and non-structural proteins of HCV genotype 2a (JFH-1) with nano-luciferase reporter. At 72 h post infection, nano-luciferase activity (Nano-Glo™, Promega) and cellular ATP (Cell titer-Glo™, Promega) were measured as a marker for HCV replication and cytotoxicity, respectively. EC50 and CC50 were calculated by non-linear regression analyzing using GraphPad Prism (GraphPad Software).
As to `O=C(NCCCN1CCC(N2CCCCC2)C1)c1ccc(Oc2ccccc2)cc1` (stereo not drawn) [Compound 1084], the EC50 is over 10000 nM.
The same measure, in the same setting: to `CN(C)c1ccc(-c2ccc(C(=O)NCCCN3CCC(N4CCCCC4)CC3)c(Cl)c2)cc1` [Compound 1154] belongs 100 to 1000 nM; to `O=C(NCCCN1CCC(N2CCCCC2)CC1)c1ccc(-c2cccc(C(F)(F)F)c2)cc1` [Compound 1027], 100 to 1000 nM.
The same measure, in the same setting: to `Cc1cc(NCCCN2CCC(N3CCCCC3)CC2)n2nc(-c3ccccc3)cc2n1` [Compound 1103] belongs 1000 to 10000 nM; to `O=C(NCCCN1CCC(C2CCNCC2)CC1)c1ccc(Oc2ccccc2)cc1` [Compound 1072], 1000 to 10000 nM; to `O=C(NCCCN1CCC(N2CCCCC2)CC1)c1cc2c(s1)CCCC2` [Compound 1002], over 10000 nM.
The same measure, in the same setting: to `O=C(NCCCCCN1CCC(N2CCCCC2)CC1)c1ccc(Oc2ccccc2)cc1` [Compound 1087] belongs 100 to 1000 nM; to `O=C(NCCCN1CCC(N2CCCC2)CC1)c1ccc(Oc2ccccc2)cc1` [Compound 1067], 100 to 1000 nM.
For the molecule `COc1ccc(-c2ccc(C(=O)NCCCN3CCC(N4CCCCC4)CC3)cc2)cc1` [Compound 1022], the EC50 is under 100 nM.
Still for that read-out and setting: to `O=C(NCCNc1ccc(N2CCCCC2)cc1)c1ccc(Oc2ccccc2)cc1` [Compound 1057] belongs 1000 to 10000 nM; to `CN(CCCN1CCC(N2CCCCC2)CC1)C(=O)c1ccc(Oc2ccccc2)cc1` [Compound 1047], 1000 to 10000 nM; to `O=C(NCCCN1CCC(N2CCCCC2)CC1)c1ccc(-c2ccc(F)cc2)cc1` [Compound 1020], 100 to 1000 nM.
Still for that read-out and setting: the same measure for `O=C(NC/C=C/CN1CCC(N2CCCCC2)CC1)c1ccc(-c2ccc(C(F)(F)F)cc2)cc1` [Compound 1117]: 100 to 1000 nM; for `O=C(NCCCN1CCC(N2CCCCC2)CC1)c1ccc(-c2ccc3cc[nH]c3c2)cc1` [Compound 1121]: 100 to 1000 nM.
On the same count and under the same terms, the same measure for `O=C(Nc1ccc(N2CCC(N3CCCCC3)CC2)cc1)c1ccc(Oc2ccccc2)cc1` [Compound 1048]: 1000 to 10000 nM; for `O=C(NCCCN1CCC(N2CCCCC2)CC1)c1ccc(-c2ccc3occc3c2)cc1` [Compound 1126]: 100 to 1000 nM; for `O=S(=O)(NCCCN1CCC(N2CCCCC2)CC1)c1ccc(-c2ccc(OC(F)(F)F)cc2)cc1` [Compound 1092]: 100 to 1000 nM.
For the molecule `O=C(NCCCN1CCC(N2CCCCC2)CC1)c1ccc(-c2ccc(C(F)(F)F)cc2)o1` [Compound 1083], the 50% effective concentration (EC50) fell in the range of 100 to 1000 nM.
Turning to `Cc1ccc(-c2ccc(C(=O)NCCCN3CCC(N4CCCCC4)CC3)cc2)cc1` [Compound 1016], the EC50 is 100 to 1000 nM.
Same read-out and setting: to `COc1cc(C(=O)NCCCN2CCC(N3CCCCC3)CC2)ccc1-c1ccc(C(F)(F)F)cc1` [Compound 1115] belongs 100 to 1000 nM; to `O=S(=O)(NCCCCN1CCC(N2CCCCC2)CC1)c1ccc(-c2ccccc2)cc1` [Compound 1091], 100 to 1000 nM; to `O=C(NCCCN1CCC(N2CCCCC2)CC1)c1ccc2oc3ccccc3c2c1` [Compound 1074], 1000 to 10000 nM.

The same assay, now with this note: Hepatitis C virus, Huh7.5, 72 h.
In the case of `Cc1nnc(-c2c(NC(=O)NCc3c(-n4cccc4)sc4c3CCNC4)sc(C)c2C)o1` [Compound 72], the concentration giving a half-maximal response (EC50) was 100 to 1000 nM.
Same read-out and setting: the same measure for `CC(C)OC(=O)c1c(NC(=O)NCc2c(C(F)(F)F)sc3c2CC[N+](C)(C)C3)sc2c1CCCC2` [Compound 170]: under 100 nM; for `CC(C)(C)OC(=O)c1c(NC(=O)NCc2c(C(F)(F)F)sc3c2CCNC3)sc2c1CCC(O)C2` (stereo not drawn) [Compound 349]: under 100 nM; for `COC(=O)c1c(NC(=O)NCc2c(C(F)(F)F)sc3c2CCNC3)sc2c1CCCC2` [Compound 129]: under 100 nM.
As to `CC(C)N1CCc2c(sc(Br)c2CNC(=O)Nc2sc3c(c2C(=O)OC(C)(C)C)CCCC3)C1` [Compound 187], the EC50 was under 100 nM.
`CCN(C)Cc1sc(-n2cccc2)c(CNC(=O)Nc2sc3c(c2C(=O)OC(C)(C)C)CCCC3)c1C` [Compound 136] registered a 50% effective concentration (EC50) of under 100 nM.
On the same count and under the same terms, the same measure for `CCN1CCc2c(sc(-n3cccc3)c2CNC(=O)Nc2sc3c(c2C(=O)NNC(C)C)CCCC3)C1` [Compound 209]: under 100 nM.
The same measure, in the same setting: to `CCOC(=O)c1c(NC(=O)NCc2c(Br)sc3c2CCNC3)sc2c1CCC(F)(F)C2` [Compound 218] belongs under 100 nM; to `CC(C)(C)OC(=O)c1c(NC(=O)NCc2c(-c3ccc(F)nc3)sc3c2CCNC3)sc2c1CCCC2` [Compound 309], under 100 nM.
Take `CN1CCc2c(sc(C(F)(F)F)c2CNC(=O)Nc2sc3c(c2C(=O)OC(C)(C)C)CCCC3)C1` [Compound 184]: the EC50 was under 100 nM.
On to `CCN1CCc2c(sc(-n3cccc3)c2CNC(=O)Nc2sc(C)c(C)c2C(=O)OC(C)(C)C)C1` [Compound 25], for which the EC50 is under 100 nM.
In the case of `Cc1sc(NC(=O)NCc2c(Br)sc3c2CCNC3)c(C(=O)OC(C)C)c1C` [Compound 216], the EC50 is under 100 nM.
On the same count and under the same terms, to `CCN1CCc2c(sc(C(F)(F)F)c2CNC(=O)Nc2sc(C)c(C)c2C(=O)OC(C)C)C1` [Compound 296] belongs under 100 nM.
In turn, `CCOC(=O)c1c(NC(=O)NCc2c(-n3cccc3)sc3c2CCN(CC)C3)sc(C(C)=O)c1C` [Compound 39] gave an EC50 of under 100 nM.
The same measure, in the same setting: to `CCN1CCc2c(sc(-n3cccc3)c2CNC(=O)Nc2sc3c(c2-c2nnc(C)o2)CCCC3)C1` [Compound 43] belongs under 100 nM; to `CCOC(=O)c1c(NC(=O)C(=O)NCc2c(-n3cccc3)sc3c2CCNC3)sc2c1CCCC2` [Compound 86], 1000 to 10000 nM.
Still for that read-out and setting: to `CCN1CCc2c(sc(-n3cccc3)c2CNC(=O)Nc2cccc(Cl)c2)C1` [Compound 9] belongs over 10000 nM; to `CCc1sc(NC(=O)NCc2c(C(F)(F)F)sc3c2CCNC3)c(C(=O)OC(C)(C)C)c1C` [Compound 270], under 100 nM.
`CCOC(=O)c1c(NC(=O)NCc2c(-n3cccc3)sc3c2CCNC3)sc2c1CCCCC2` [Compound 113] had an EC50 of 100 to 1000 nM.
The same measure, in the same setting: the same measure for `CCOC(=O)c1c(NC(=O)NCc2c(-n3cccc3)sc3c2CCN(C)C3)sc(C)c1C` [Compound 71]: under 100 nM; for `CCOC(=O)c1c(NC(=O)NCc2c(-n3cccc3)sc3c2CCCC3)sc2c1CCCC2` [Compound 4]: under 100 nM.
On the same count and under the same terms, the same measure for `Cc1nnc(-c2c(NC(=O)NCc3c(-n4cccc4)sc4c3CCNC4)sc3c2CCCC3)o1` [Compound 60]: 100 to 1000 nM; for `CCN1CCc2c(sc(C(F)(F)F)c2CNC(=O)Nc2sc3c(c2C(=O)OC(C)(C)C)CCCCC3)C1` [Compound 303]: under 100 nM.
With `CCc1sc2c(c1CNC(=O)Nc1sc(C)c(C)c1C(=O)OC(C)(C)C)CCNC2` [Compound 288], the concentration giving a half-maximal response (EC50) was under 100 nM.
`CC(C)(C)OC(=O)c1c(NC(=O)NCc2c(-c3ccc(F)cc3Cl)sc3c2CCNC3)sc2c1CCCC2` [Compound 286] came in with a half-maximal effective concentration (EC50) of 100 to 1000 nM.
Same read-out and setting: to `CCOC(=O)c1c(NC(=O)NCc2c(C(F)(F)F)sc3c2CCN(C(=N)N)C3)sc2c1CCCC2` [Compound 341] belongs under 100 nM; to `Cc1sc(NC(=O)NCc2c(-c3ccc(F)cc3)sc3c2CCNC3)c(C(=O)OC(C)(C)C)c1C` [Compound 368], 100 to 1000 nM; to `Cc1sc(NC(=O)NCc2c(-n3cccc3)sc3c2CCNC3)c(C(=O)OC(C)C)c1C` [Compound 215], under 100 nM.
The molecule `Cc1sc(NC(=O)NCc2c(-n3cccc3)sc3c2CCN(C)C3)c(C(=O)OC(C)C)c1C` [Compound 196] displayed a half-maximal effective concentration (EC50) of under 100 nM.

Source of the values: patent US9809602B2, “Compounds for treating viral infections” (INSTITUT PASTEUR KOREA, priority 2014, dated 2017).
